Source: PubChem BioAssay AID1419 (Emory University Molecular Libraries Screening Center, 2008)
Active and inactive are the calls of the source. How the calls were made is not given here.

Test: EBV protein-peptide binding inhibitors, dose response, biochemical, fluorescence polarization (AID 1419)
Conditions: cell-free protein-peptide binding, 2 h; for fold change: measured here: P channel fold over control, at 54 µM

SMILES	IC50	fold change
O=c1[nH]c(Nc2ccccc2)cc2ccccc12	2.02 µM	2.34
N=C1/C(=C/c2ccc(-c3cccc(C(=O)O)c3)o2)C(=O)N=C2SC=C(c3ccccc3)N12	3.82 µM	1.36
CC1(C)CC(=O)C2=C(C1)OC(N)=C(C#N)C2c1cc2c(cc1[N+](=O)[O-])OCO2 (stereo not drawn)	2.04 µM	3.34
CN(C)c1ccc2c3c(cccc13)C(=O)N(c1ccccc1)C2=O	4.05 µM	11
O=C1NC(=S)/C(=C\c2ccc(-c3ccccc3Cl)o2)S1	26.9 µM	1.59
CCC1=NN2C(=N)/C(=C\c3ccc(OCc4cc(=O)n5nc(CC)sc5n4)c(OC)c3)C(=O)N=C2S1	> 54 µM (inactive)	1.08
COC(=O)CCCCC1SCC(NC(=O)c2ccccc2)C1Cl (stereo not drawn)	10.8 µM	2.16
N#Cc1cc(C(=O)c2ccccc2O)cn(-c2nccs2)c1=O	5.3 µM	14.2
O=S(=O)(Nc1cc2nc3ccccc3nc2n1Cc1ccccc1)c1ccc(Cl)cc1	2.89 µM	13
CCn1c(SCc2ccc(C(=O)Nc3nccs3)cc2)nnc1-c1ccc(N)cc1	> 54 µM (inactive)	0.973
Clc1ccc(C2=CC(c3ccco3)n3ncnc3N2)cc1 (stereo not drawn)	3.9 µM	3.17
CCSc1cc(N2CCCC2)nc(-c2ccccc2Cl)n1	45.7 µM (inactive)	1.05
COc1ccc2nc(N3CCC(C)CC3)c(C#N)cc2c1	9.17 µM	1.94
COC(=O)c1cc2c(C)c(C)c3ccccn3c-2c1C(=O)OC	3.61 µM	2.38
O=C1c2cccc3c(N4CCCCC4)ccc(c23)C(=O)N1c1ccccn1	< 0.42 µM	11.5
O=C1c2cccc3c([N+](=O)[O-])ccc(c23)C(=O)N1Cc1cccnc1	> 54 µM (inactive)	5.08
O=C1/C(=C/c2ccco2)Oc2c1ccc(O)c2CN1CCCCC1	1.93 µM	22.1
CC(=O)n1c(C=Nc2ccc(Cl)cc2)c(O)c2ccccc21	1.09 µM	31.8
Cc1ccc(/C=c2\sc3nc(-c4cccnc4)nn3c2=O)cc1	> 54 µM (inactive)	1.13
O=C(c1ccco1)[C@@H]1[C@@H]2C(=O)N(c3ccc(F)cc3)C(=O)[C@@H]2C2c3ccccc3C=CN21 (stereo partly drawn)	6.26 µM	2.53

SMILES	IC50	fold change
O=c1[nH]c(S)c(/C=C2\C=Nc3ccccc32)s1	2 µM	3.56
C=CCc1cccc(C=Nc2cc(Br)ccc2O)c1O	5.72 µM	27.4
Cc1cc(=O)oc2c(CN3CCC(C)CC3)c(O)c(Cl)cc12	2.42 µM	2.16
Cc1ccc(C2C(C(=O)c3ccco3)=C(O)C(=O)N2c2nnc(C)s2)cc1 (stereo not drawn)	> 54 µM (inactive)	1.75
CC(C)Oc1ccc(-c2nn(-c3ccccc3)cc2/C=c2\sc3ncnn3c2=O)cc1	1.43 µM	14.3
CNc1cccc2c1C(=O)c1ccccc1C2=O	2.8 µM	2.44
Cn1c(=O)c(Nc2ccc(Cl)cc2)c2c3c(cccc31)C(=O)c1ccccc1-2	< 0.42 µM	25.4
Cn1cc(Cl)c(C(=O)Nc2nc3ccc([N+](=O)[O-])cc3s2)n1	> 54 µM (inactive)	0.983
N#C/C(=C\c1sc(N2CCOCC2)nc1-c1ccccc1)C(=O)Nc1cccc2ccccc12	30.8 µM (inactive)	3.26
CCN(CC)c1ccc(N=Cc2c(O)n(-c3ccc(OC)cc3)c(=O)[nH]c2=O)cc1	6.01 µM	17.1
COc1ncnc2c1N=C1CC(C)(C)CC(N)=C1S2	2.31 µM	6.34
Cc1cc(/C=C(\C#N)c2nc3ccccc3[nH]2)c(C)n1C	1.32 µM	6.63
CCCCCn1nc(-c2ccccc2)c2nc3ccccc3nc21	2.92 µM	33.5
CCCNC(=O)Cn1c(=O)/c(=C\c2ccc(-c3cccc([N+](=O)[O-])c3)o2)s/c1=C\C(=O)C(C)(C)C	1.02 µM	8.62
CSc1nc(N(C)CCO)c2sc3nc(-c4ccco4)c4c(c3c2n1)CCC4	> 54 µM (inactive)	1.04
Cc1cc(NC(=O)Cc2cccs2)no1	16.9 µM	1.09
Cc1cc(/C=N/NC(N)=S)c(O)c(/C=N/NC(N)=S)c1	< 0.42 µM	26.6
Cc1cc(C)n2c(SC/C(O)=C(\C#N)c3nc4ccccc4[nH]3)nnc2n1	20.1 µM	1.1
CC(=O)Nc1ccc(NC2=Nc3ccccc3N3C2=Nc2c(c(C)nn2-c2ccccc2)C3c2ccccc2)cc1 (stereo not drawn)	4.1 µM	3.9
COCCCn1c(=NC(=O)c2ccccc2)c(C#N)cc2c(=O)n3cccc(C)c3nc21	3.88 µM	4.43

SMILES	IC50	fold change
O=S(=O)(Nc1ccc2c(c1)OCCO2)c1cccc2cccnc12	> 54 µM (inactive)	0.963
CCN(CC)C(=O)CSc1nnc2nnc3cc(Cl)ccc3n12	4.38 µM	3.1
COc1ccc2nc(N3CCCC3)c(C#N)cc2c1	< 0.42 µM	16.7
O=C(OCCN1C(=O)c2cccc3c(N4CCOCC4)ccc(c23)C1=O)c1cc(Cl)cc(Cl)c1	1.42 µM	49.6
CN(N=Nc1ccc([N+](=O)[O-])cc1)c1ccccc1	3.98 µM	61.8
CCOc1ccc2nc(N3CCCN(C(=O)Nc4ccccc4C)CC3)c(C#N)cc2c1	8.65 µM	8.56
N#CC1(C#N)CC(C=O)=C(N)C1(C#N)CC(=O)C12CC3CC(CC(C3)C1)C2 (stereo not drawn)	> 54 µM (inactive)	0.933
O=C(O)COn1c(-c2ccccc2)nc2ccc([N+](=O)[O-])cc21	> 54 µM (inactive)	1.17
O=C(OCCN1C(=O)c2cccc3c(N4CCOCC4)ccc(c23)C1=O)c1ccc(Cl)cc1Cl	1.81 µM	84.3
Cc1ccc2c3c(cccc13)-c1ccccc1C2=O	2.37 µM	2.72
O=c1ccc2[n+]([O-])c3ccc(O)cc3oc-2c1	1.34 µM	5.06
CCN(CC)c1ccc(/C=C(\C#N)C(=O)c2ccc(Br)cc2)cc1	2.69 µM	107
Oc1ccccc1C=NC1=NN(c2cccc(C(F)(F)F)c2)CC1	3.11 µM	19.9
Cn1c(=O)c(NC2CCCCC2)c2c3c(cccc31)C(=O)c1ccccc1-2	0.88 µM	34.7
Cn1c(/N=C/c2c(O)ccc3ccccc23)nc2ccccc21	3.17 µM	41.9
O=C(O)c1ccc2c3c(ncnc13)-c1ccccc1C2=O	> 54 µM (inactive)	1.83
O=C(N/N=C/c1cc(Cl)cc([N+](=O)[O-])c1O)NC12CC3CC(CC(C3)C1)C2	> 54 µM (inactive)	0.913
O=S(=O)(Nc1nc2ccccc2nc1-[n+]1cccc(N=C([O-])c2ccccc2Cl)c1)c1ccccc1	1.13 µM	2.79
O=C1NC(=O)[C@@H]2C3c4ccccc4C=CN3[C@H](C(=O)c3cccs3)[C@H]12 (stereo partly drawn)	4.84 µM	3.36
